Reference: US11396517B1, “Exo-aza spiro inhibitors of menin-MLL interaction” (Janssen Pharmaceutica NV, priority 2017, dated 2022)

Columns and labels:
MV-4-11 [1] = assay: Proliferation assay A (spheroid assay) MV-4-11; assay type: cell-based, human; settings: MV-4-11 cells, 8 d, AUC of confluence against time, absolute IC50, read-out: (3a) Spheroid assay MV-4-11 (IC50(μM)) Assay A
Outline: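 Spheroid growth in ultra-low-attachment round-bottom wells (1,500 MV-4-11, 300 MOLM14 or 750 K562 cells), compound titration at 0.3% DMSO, 8 d at 37° C. Confluence imaged every 4 h; AUC from t=0 baseline expressed as % of DMSO control and fitted for absolute IC50.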

MV-4-11 [2] = assay: Proliferation assay B (spheroid assay) MV-4-11; assay type: cell-based, human; settings: Homo sapiens, MV4-11, 192 h, MV-4-11 cells, confluence at day 8, absolute IC50; read-out: (3b) Spheroid assay MV-4--11 (IC50(μM)) Assay B
Outline: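 Leukemia cells grown as spheroids in ultra-low-attachment round-bottom wells with compound at 0.3% DMSO for 8 d at 37 °C. Confluence imaged at day 8 as spheroid size, normalized between DMSO and 1 μM staurosporine controls; absolute IC50 from sigmoidal fit with bounds fixed at 0 and 100%.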

IC50 (MV-4-11 [1]; Homo sapiens, MV4-11, 192 h)	IC50 (MV-4-11 [2])	IC50 (MV-4-11 [1])	SMILES
2.13 µM	2.62 µM	–	FC(F)(F)Cc1cc2c(N3CCC4(CC(Nc5ccc6cc[nH]c6c5)C4)C3)ncnc2s1 (mixture of isomers) [Compound 311]
0.16 µM	0.26 µM	–	Cn1c(=O)[nH]c2cc(CNC3CCC4(C3)CN(c3ncnc5sc(CC(F)(F)F)cc35)C4)ccc21 (centres unmarked) [Compound 54]
0.09 µM	0.16 µM	–	CNC(=O)c1ccc(NC2CC3(CCN(c4ncnc5sc(CC(F)(F)F)cc45)C3)C2)cc1 (centres unmarked) [Compound 93]
–	0.11 µM	0.03 µM	O=c1[nH]c2cc(CNC3CCC4(C3)CN(c3ncnc5sc(CC(F)(F)F)cc35)C4)ccc2o1 (single isomer, unassigned) [Compound 58]
